{
  "source": "patent EP4736876A1",
  "about": "“DRUG COMBINATION CONTAINING PD-L1 SMALL MOLECULE INHIBITOR AND USE THEREOF” (Beijing Maxinovel Pharmaceuticals Co., Ltd., priority 2023, dated 2025)",
  "key": {"4T1 hPD-L1 cells [1]": {"test_system": "4T1 hPD-L1 cells", "experiment": "Pharmacodynamic study on mouse breast cancer 4T1 hPD-L1 model, subcutaneous (Example 2, celecoxib combination)", "assay_type": "in vivo, BALB/c mice", "settings": "Compound of Formula I 120 mg/kg p.o. BID, Celecoxib 60 mg/kg p.o. BID", "method": "Experimental animals: 100 BALB/c mice, female, 6 to 8 weeks old, weighing 18 to 21 g, purchased from: Shanghai Jihui Laboratory Animal Care Co., Ltd. (SCXK (Shanghai) 2020-0009; Certificate No.: 20220009001922).\nDrugs: Compound of Formula I, manufacturer: Pharmaron (Tianjin) Process Development and Manufacturing Co., Ltd., batch number: TJ-MAX-10181-A-2; Celecoxib, manufacturer: Shanghai Yuanye Bio-Technology Co., Ltd., batch number: D11A6S2152.\n(§1) Murine 4T1 hPD-L1 cells were grown adherently in vitro under culture conditions of RPMI-1640 medium supplemented with 10% heat-inactivated fetal bovine serum and 4 µg/mL Blasticidin (Beyotime/ST018-1mL), at 37°C with 5% CO2. Cells were passaged 2 to 3 times per week. When cells were in the exponential growth phase, the cells were harvested, counted, and inoculated subcutaneously on the right dorsal side of BALB/c mice.\n100 µL of 1 × 10^6 4T1 hPD-L1 cell suspension was inoculated subcutaneously on the right dorsal side of BALB/c mice. On the seventh day after inoculation, stratified randomization was used to divide into 4 groups (10 mice per group) based on tumor volume and body weight. Administration began on the day of grouping. Table 5: Animal Experiment Grouping and Administration Regimen\n(§2) The experimental indicators were examined to determine whether tumor growth could be inhibited, delayed, or cured. Tumors were measured three times per week using a digital vernier caliper. The tumor volume was calculated using the formula: V = 0.5a × b^2, where a and b represent the long and short diameters of the tumor, respectively. The tumor growth inhibition efficacy of compounds was calculated as: TGI (%) = [1 - (TVi - TV0) / (TVVi - TVV0)] × 100% (where TV0 represents the mean volume of the treatment group on day 0, TVV0 represents the mean volume of the control group on day 0; TVi represents the mean volume of the treatment group on day i, and TVVi represents the mean volume of the control group on day i).\n(§3) If the animals' health condition continued to deteriorate, or the tumor volume exceeded 2,000 mm^3, or severe illness or pain occurred, euthanasia was required. In the following circumstances, the veterinarian was notified and euthanasia was performed: • (1) Significant emaciation with body weight loss exceeding 20%; • (2) Inability to freely access food and water; • (3) The experiment was terminated when the average tumor volume in the control group reached 2000 mm^3.\n(§4) GraphPad Prism 8.0 software was used for plotting. Changes in tumor volume in mice were analyzed by Two-way ANOVA and compared with the vehicle control group using Dunnett's method, with P < 0.05 considered statistically significant."}, "4T1 hPD-L1 cells [2]": {"test_system": "4T1 hPD-L1 cells", "experiment": "Pharmacodynamic study on mouse breast cancer 4T1 hPD-L1 model, subcutaneous (Example 1, capecitabine combination)", "assay_type": "in vivo, BALB/c mice", "settings": "Compound of Formula I 120 mg/kg p.o. BID, Capecitabine 100 mg/kg p.o. QD", "method": "Experimental animals: 100 BALB/c mice, female, 6 to 8 weeks old, weighing 18 to 21 g, purchased from Shanghai Jihui Laboratory Animal Care Co., Ltd. (SCXK (Shanghai) 2020-0009; Certificate No.: 20220009001922).\nDrugs: Compound of Formula I [drawing 4] manufacturer: Pharmaron (Tianjin) Process Development and Manufacturing Co., Ltd., batch number: TJ-MAX-10181-A-2; Capecitabine, manufacturer: Shanghai Yuanye Bio-Technology Co., Ltd., batch number: J10J12L137020.\nas §1\n100 µL of 1 × 10^6 4T1 hPD-L1 cell suspension was inoculated subcutaneously on the right dorsal side of BALB/c mice. On the 6th day after inoculation, suitable animals were selected based on tumor volume and body weight, and stratified randomization was used to divide them into 4 groups, with 10 mice per group. Administration began on the day of grouping. Table 1: Animal Experiment Grouping and Administration Regimen\nas §2, §3, §4"}, "[3]": {"settings": "mean, n=10, baseline on day of grouping"}},
  "data": [
    {"smiles": "Cc1c(/C=C/c2cc(CN[C@@](C)(CO)C(=O)O)ccc2C(F)(F)F)cccc1-c1ccccc1", "note": "[Compound of Formula I]", "values": [
      {"measurement": "TGI (%)/Day 21", "setting": "4T1 hPD-L1 cells [1]; Day 21 vs vehicle control", "result": 32.78, "unit": "%"},
      {"measurement": "Tumor Volume at the End of the Experiment/Day 21", "setting": "4T1 hPD-L1 cells [1]; mean, n=10, Day 21", "result": 921.91, "unit": "mm^3"},
      {"measurement": "Tumor Volume at the Beginning of the Experiment/Day 0", "setting": "4T1 hPD-L1 cells [1]; [3]", "result": 160.33, "unit": "mm^3"},
      {"measurement": "Body Weight of Animals at the Beginning of the Experiment", "setting": "4T1 hPD-L1 cells [1]; mean, baseline", "result": 23.04, "unit": "g"},
      {"measurement": "Body Weight of Animals at the End of the Experiment", "setting": "4T1 hPD-L1 cells [1]; mean, end of experiment", "result": 24.85, "unit": "g"},
      {"measurement": "Relative Body Weight Change of Animals at the End of the Experiment", "setting": "4T1 hPD-L1 cells [1]; mean, end of experiment", "result": 8.01, "unit": "%"},
      {"measurement": "TGI (%)/Day 21", "setting": "4T1 hPD-L1 cells [2]; Day 21 vs vehicle control", "result": 41.88, "unit": "%"},
      {"measurement": "Tumor Volume at the End of the Experiment/Day 21", "setting": "4T1 hPD-L1 cells [2]; mean, n=10, Day 21", "result": 1103.30, "unit": "mm^3"},
      {"measurement": "Tumor Volume at the Beginning of the Experiment/Day 0", "setting": "4T1 hPD-L1 cells [2]; [3]", "result": 125.52, "unit": "mm^3"},
      {"measurement": "Body Weight of Animals at the Beginning of the Experiment", "setting": "4T1 hPD-L1 cells [2]; mean, baseline", "result": 24.20, "unit": "g"}
    ]}
  ]
}
